This is an account of results in EP3901142A1, “PYRAZOLYLBENZENE-1,3-DIOLS FOR DISEASES ASSOCIATED WITH G PROTEIN-COUPLED RECEPTOR 18 AND IN COMBINATION WITH TRANSIENT RECEPTOR POTENTIAL VANILLOID 1” (Consejo Superior de Investigaciones Científicas (CSIC), priority 2020, dated 2021).

For this experiment, the target named is TRPV1 (Homo sapiens, UniProt Q8NER1). As to the kind of experiment: Calcium imaging (Fura-2 AM) in TRPV1-expressing cells. The experiment is classed as cell-based. The note with it: 5 µM; TPRV1-expressing cells. As to the method:
Cell Culture. A plasmid containing GPR18 (NM_005292) was obtained from Origene (Rockville, MD) and engineered with an N-terminal GFP-tag. The resulting plasmid was used to transfect CHO-K1 cells using Lipofectamine 2000 (Invitrogen, Carlsbad CA). Clonal cells were selected in medium containing G418 (Geneticin, 800 µg/ml; Enzo Life Sciences, Farmingdale, NY). Two weeks after transfection, clones were isolated and expression was verified by fluorescence microscopy of GFP-tagged receptors. The resulting stable cell line was cultured in DMEM with 10% fetal bovine serum at 37°C, 5% CO2 and passaged every 2-3 days. […] Two weeks after transfection, clones were isolated and expression was verified by fluorescence microscopy of HA-tagged receptors. […] Intracellular calcium levels were determined by measuring fluorescence emissions from Fura-2 AM (510 nm) after alternating excitation at 340 and 380 nm at 0.25 Hz for 5 min. Images were analyzed in the NIS-Elements AR software (Nikon), and the fluorescence ratio at 340nm/380nm was converted to Ca^2+ concentrations.

Sequence of TRPV1 (Q8NER1 whole entry): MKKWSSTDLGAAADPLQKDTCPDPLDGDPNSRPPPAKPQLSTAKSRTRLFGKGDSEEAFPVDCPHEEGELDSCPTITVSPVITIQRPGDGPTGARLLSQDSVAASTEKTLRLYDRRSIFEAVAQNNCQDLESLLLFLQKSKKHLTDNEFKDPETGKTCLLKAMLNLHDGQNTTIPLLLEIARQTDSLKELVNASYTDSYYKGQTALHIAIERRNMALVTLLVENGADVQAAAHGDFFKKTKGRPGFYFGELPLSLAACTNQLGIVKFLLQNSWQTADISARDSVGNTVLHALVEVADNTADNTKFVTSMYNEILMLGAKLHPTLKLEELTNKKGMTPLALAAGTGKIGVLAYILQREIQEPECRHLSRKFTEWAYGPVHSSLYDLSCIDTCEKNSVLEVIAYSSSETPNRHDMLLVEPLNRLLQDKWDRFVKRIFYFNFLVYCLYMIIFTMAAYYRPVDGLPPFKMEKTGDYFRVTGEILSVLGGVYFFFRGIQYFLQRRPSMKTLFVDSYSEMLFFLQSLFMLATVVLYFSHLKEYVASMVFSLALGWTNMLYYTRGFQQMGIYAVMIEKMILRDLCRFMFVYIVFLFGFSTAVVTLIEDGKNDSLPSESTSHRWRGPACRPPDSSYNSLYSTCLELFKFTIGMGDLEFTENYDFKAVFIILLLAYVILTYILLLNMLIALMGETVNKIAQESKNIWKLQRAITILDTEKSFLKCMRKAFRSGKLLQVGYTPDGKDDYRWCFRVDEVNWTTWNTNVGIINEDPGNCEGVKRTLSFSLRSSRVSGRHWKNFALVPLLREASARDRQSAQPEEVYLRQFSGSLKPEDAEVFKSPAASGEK

Consider `CCCCC/C=C\C/C=C\C/C=C\C/C=C\CCCC(=O)NCCO` [Anandamide], for which the “effect on intracellular calcium (Ca^2+)” value was “increases intracellular calcium (Ca^2+)”.
